# Patent US20150157588A1, “Pharmaceutical Composition Comprising Amino-Phenyl-Acetic Acid Octadec-(Z)-9-enyl Ester and Use Thereof for Treating Tumors” (Yeda Research and Development Co., Ltd., priority 2012, published 2015)
# Tested on: unstimulated CD3 positive T cells
# Experiment: Microarray gene expression, unstimulated T cells
# Assay type: cell-based, human
# Details: for Fold change C16orf7: 205781_at; for Fold change TNFRSF17: 206641_at; for Fold change LILRB2 /// LILRB3: 210784_x_at; for Fold change CLEC11A: 211709_s_at; for Fold change WDR33: 218851_s_at
# Method: CD3 positive T cells were extracted from a healthy donor according to a standard protocol, and seeded in T cell medium including RPMI, 10% fetal calf serum, sodium pyruvate, L-Glutamine, and Penicillin/Streptomycin. Following an overnight incubation with medium, the cells were treated by incubating for 2 hours at 37° C. with amino-phenyl-acetic acid octadec-(Z)-9-enyl ester at a concentration of 10 micrograms/ml in a final volume of 10 ml in T-cell medium with or without 0.05% ethanol. After incubation, half the cells from each treatment were centrifuged and 2 ml of Tri-reagent (Sigma) were added to the pellet. The other half of the cells from each treatment were transferred to anti-CD3 antibody coated 24 well plates for an overnight incubation at 37° C. Coating plates with an anti-CD3 antibody was carried out by incubating with 2 micrograms/ml of OKT3 anti-CD3 antibody overnight at 4° C., washing three times with PBS and blocking with filtered 1% Bovine Serum Albumin for 1 hour. After activation with anti-CD3 antibody, cells were centrifuged and 2 ml of Tri-reagent were added to the pellet.
# RNA was extracted from unstimulated cells and from cells activated with anti-CD3 according to standard protocols and used for hybridization with a Human Genome U133A 2.0 (Affymetrix, Catalogue number 900468), according to the manufacturer's instructions. The results of the hybridization were read by a GeneChip scanner 3000 (Affymetrix) and analyzed by QuantArray (GSI lumonics).
# The effects of amino-phenyl-acetic acid octadec-(Z)-9-enyl ester in ethanol solution or in an aqueous vehicle (hereinafter termed “in PBS”) on gene expression in unstimulated T cells and T cells activated by anti-CD3 antibody were compared by microarray analysis.
# [1] = in ethanol solution vs untreated
# [2] = in ethanol solution vs untreated, data not shown
structure (smiles),measurement,setting,value
CCCCCCCC/C=C\CCCCCCCCOC(=O)C(N)c1ccccc1 (stereo not drawn) [amino-phenyl-acetic acid octadec-(Z)-9-enyl ester],Fold change SYMPK,"32402_s_at, in ethanol solution vs in PBS",2.03
same,Fold change HEY1,"44783_s_at, in ethanol solution vs untreated",2.11
same,Fold change TPM2,"204083_s_at, in ethanol solution vs untreated",2.39
same,Fold change CDC25A,"204695_at, in ethanol solution vs in PBS",1.94
same,Fold change EPHB6,"204718_at, in ethanol solution vs in PBS",2.019
same,Fold change RRAD,"204802_at, in ethanol solution vs in PBS",2.27
same,Fold change C16orf7,in ethanol solution vs in PBS,2.54
same,Fold change C16orf7,[1],2.15
same,Fold change RASA3,"206221_at, in PBS vs untreated",−2.23
same,Fold change FLJ23556,"206548_at, in ethanol solution vs in PBS",1.94
same,Fold change TNFRSF17,in ethanol solution vs in PBS,2.08
same,Fold change TNFRSF17,[1],2.06
same,Fold change SPAG9,"206748_s_at, in PBS vs untreated",−1.81
same,Fold change CRTC1,"207159_x_at, in ethanol solution vs in PBS",1.96
same,Fold change TSPAN4,"209263_x_at, in ethanol solution vs in PBS",2.24
same,Fold change SF3A2,"209381_x_at, in ethanol solution vs untreated",1.95
same,Fold change TBC1D22A,"210144_at, in ethanol solution vs untreated",2.03
same,Fold change LILRB2 /// LILRB3,in PBS vs untreated,−1.84
same,Fold change LILRB2 /// LILRB3,in ethanol solution vs in PBS,2.00
same,Fold change CLEC11A,in ethanol solution vs in PBS,2.10
same,Fold change CLEC11A,[1],2.19
same,Fold change BOP1 /// LOC727967,"212563_at, in ethanol solution vs in PBS",1.94
same,Fold change ID2 /// ID2B,"213931_at, in ethanol solution vs in PBS",2.04
same,Fold change MCL1,"214057_at, in ethanol solution vs untreated",2.12
same,Fold change S100A8,"214370_at, in ethanol solution vs untreated",1.9
same,Fold change MTMR1,"214975_s_at, in PBS vs untreated",−2.41
same,Fold change probeset 215450_at,"215450_at, in ethanol solution vs untreated",1.98
same,Fold change ARPC4,"217817_at, in ethanol solution vs untreated",2.03
same,Fold change CENPT,"218148_at, in ethanol solution vs untreated",1.94
same,Fold change CLN6,"218161_s_at, in ethanol solution vs in PBS",1.94
same,Fold change IGF2BP2,"218847_at, in ethanol solution vs untreated",2.02
same,Fold change WDR33,in ethanol solution vs in PBS,2.79
same,Fold change WDR33,[1],2.32
same,Fold change IGHD,"222285_at, in ethanol solution vs untreated",1.98
same,Fold change probeset 222376_at,"222376_at, in ethanol solution vs untreated",2.11
same,up-regulated genes,in PBS vs untreated,no significantly up-regulated genes
same,number of down-regulated genes,in ethanol solution compared with in PBS,497 genes
same,fold down-regulation of the down-regulated genes,[2],2-18 fold
same,number of down-regulated genes,[2],573 genes
